Measured values: publication PMC4552634, “A New Set of Chemical Starting Points with Plasmodium falciparum Transmission-Blocking Potential for Antimalarial Drug Discovery” (PLoS ONE, 2015)

Each molecule was assayed on P. falciparum stage V gametocytes (assay: microbe, parasite or virus in culture). Settings: Plasmodium falciparum, 48 h, read-out: % Inhibition.
Set-up: BacTiter-Glo ATP luminescence viability of purified stage V gametocytes in 384-well plates, per cent inhibition versus DMSO
In the case of `Cc1cc(NN=Cc2ccccc2Cl)c2cc(C(F)(F)F)ccc2n1` [TCMDC-142154], the inhibition at 5 µM is reported as -77.2%.
With `CCOC(=O)c1cnc2c(OC)cc(OC)c(Cl)c2c1Nc1cccc(C)c1C` [TCMDC-142242] the inhibition at 5 µM was 64.1%.
Molecule `COc1cccc2c(N/N=C/c3cccc([N+](=O)[O-])c3)ccnc12` [TCMDC-142142] has an inhibition at 5 µM of -28.6%.
`CCn1c2ccccc2c2cc(C=NNc3cc(C)nc4ccccc34)ccc21` [TCMDC-142186] was tested, and the inhibition at 5 µM was 85.3%.
`CCOc1ccc2c(NN=Cc3cc(OC)c(OC)cc3OC)cc(C)nc2c1` [TCMDC-142207] gave an inhibition at 5 µM of 101%.
`COc1ccc(C=NNc2cc(C)nc3ccc(C)cc23)c2ccccc12` [TCMDC-142217] showed an inhibition at 5 µM of 103%.
`CC(C)(C)CC(C)(C)c1ccc(O)c(C(=O)Nc2cccc([N+](=O)[O-])c2)c1` [TCMDC-142210] showed an inhibition at 5 µM of 8.52%.
`CCNc1c2ccc(Cl)cc2nc2ccc(OC)cc12` [TCMDC-142190] was tested, and the inhibition at 5 µM was -21.5%.
For `COc1ccc2nccc(NN=Cc3ccc(Cl)cc3)c2c1` [TCMDC-142124], the inhibition at 5 µM was 58.2%.
In the case of `CCCCCCc1cc(Oc2c(I)cc(C[C@H](N)C(=O)O)cc2I)ccc1O` [TCMDC-142342], the inhibition at 5 µM is reported as 5.11%.
`CN(C)CCCOc1ccc(-c2csc(NC(N)=NCc3ccccc3)n2)cc1` [TCMDC-142339] was tested, and the inhibition at 5 µM was 35.3%.
In the case of `NC(=NCc1ccccc1)Nc1nc(-c2ccc(OCCCn3ccnc3)cc2)cs1` [TCMDC-142335], the inhibition at 5 µM is reported as 8.33%.
`Cc1cc(N/N=C/c2ccc([N+](=O)[O-])cc2)c2ccc(F)cc2n1` [TCMDC-142170] showed an inhibition at 5 µM of 105%.
For `Cc1c(N=O)cc(C(C)(C)C)c(O)c1C(=O)Nc1ccc([N+](=O)[O-])cc1Cl` [TCMDC-142233], the inhibition at 5 µM was 32.7%.
`Cc1cc(NN=Cc2ccc(Cl)cc2)c2cc(F)ccc2n1` [TCMDC-142163] was tested, and the inhibition at 5 µM was 56.5%.
With `COc1ccc2c(NN=C(C)c3ccccn3)cc(C)nc2c1` [TCMDC-142239] the inhibition at 5 µM was 103%.
Molecule `COc1ccc2nccc(NN=Cc3ccc(N(C)C)cc3)c2c1` [TCMDC-142145] has an inhibition at 5 µM of -119%.
With `Cc1cc(NN=Cc2ccccc2Cl)c2ccc(F)cc2n1` [TCMDC-142162] the inhibition at 5 µM was -52.4%.
`Cc1cc(NN=Cc2ccccc2Cl)c2cccc(C)c2n1` [TCMDC-142114] gave an inhibition at 5 µM of 48.6%.
Work on `Nc1c2c(nc3ccc(Oc4ccc(Cl)cc4)cc13)CCCC2` [TCMDC-142282] yielded an inhibition at 5 µM of 92%.
`Cc1cc(N/N=C/c2ccccc2[N+](=O)[O-])c2ccc(F)cc2n1` [TCMDC-142168] gave an inhibition at 5 µM of -45.1%.
Work on `COc1ccc2c(NN=Cc3ccccc3)ccnc2c1` [TCMDC-142111] yielded an inhibition at 5 µM of 89.4%.
In the case of `Cc1cc(NN=Cc2cccc(Cl)c2)c2ccc(F)cc2n1` [TCMDC-142161], the inhibition at 5 µM is reported as -34%.
For `CCN(CC)CCCC(C)Nc1c(-c2ccc(OC)cc2)cnc2ccccc12` (stereo not drawn) [TCMDC-142265], the inhibition at 5 µM was 36.6%.
For `CCOc1ccc2c(NN=Cc3cccc(OC)c3)cc(C)nc2c1` [TCMDC-142204], the inhibition at 5 µM was 80.8%.
With `CCOc1ccc2c(NN=Cc3cc(OC)c(OC)c(OC)c3)cc(C)nc2c1` [TCMDC-142208] the inhibition at 5 µM was 101%.
Work on `CC(C)OC(=O)c1ccccc1S(N)(=O)=O` [TCMDC-142262] yielded an inhibition at 5 µM of -12.6%.
Molecule `Cc1cc(NN=Cc2cccc(Cl)c2)c2cc(F)ccc2n1` [TCMDC-142164] has an inhibition at 5 µM of -59.6%.
With `CC(C)(C)CC(C)(C)c1ccc(O)c(C(=O)Nc2ccc([N+](=O)[O-])cc2)c1` [TCMDC-142211] the inhibition at 5 µM was -13%.
`Fc1ccccc1C=NNc1ccnc2ccccc12` [TCMDC-142101] was tested, and the inhibition at 5 µM was -64.6%.
Work on `CCCN(CCC)CCCOc1ccc(C(=O)c2c(-c3ccc(OCCCN(CCC)CCC)cc3)oc3ccc(Cl)cc23)cc1` [TCMDC-142256] yielded an inhibition at 5 µM of 105%.
`FC(F)(F)c1ccc2c(NN=Cc3cccc(Cl)c3)ccnc2c1` [TCMDC-142149] was tested, and the inhibition at 5 µM was -44.9%.
In the case of `Cc1cc(Br)cnc1CCCCNc1cc(=O)c2ccccc2[nH]1` [TCMDC-142316], the inhibition at 5 µM is reported as -5.57%.
For `COc1ccc(C=NNc2ccnc3ccccc23)c2ccccc12` [TCMDC-142215], the inhibition at 5 µM was -96.9%.
`CCOc1ccc2c(NN=Cc3cccc(Cl)c3)cc(C)nc2c1` [TCMDC-142192] was tested, and the inhibition at 5 µM was -2.16%.
Molecule `CCOC(=O)c1cnc2c(OC)cc(OC)c(Cl)c2c1Nc1cccc(C)c1` [TCMDC-142241] has an inhibition at 5 µM of -99.9%.
Molecule `Cc1cc(NN=Cc2ccccc2F)c2cc(F)ccc2n1` [TCMDC-142171] has an inhibition at 5 µM of -53.4%.
In the case of `COc1ccc2c(NN=Cc3cccc(Cl)c3)ccnc2c1` [TCMDC-142128], the inhibition at 5 µM is reported as 98.7%.
Molecule `COc1ccc2c(NN=Cc3ccc(N(C)C)cc3)ccnc2c1` [TCMDC-142146] has an inhibition at 5 µM of 97.5%.
In the case of `Cc1cc(NN=Cc2cccc(F)c2)c2ccc(F)cc2n1` [TCMDC-142174], the inhibition at 5 µM is reported as -36.6%.
For `COc1ccc2c(NN=Cc3cccc(F)c3)ccnc2c1` [TCMDC-142134], the inhibition at 5 µM was 99%.
For `Nc1c2c(nc3ccc(C(=O)Nc4ccccc4)cc13)CCCC2` [TCMDC-142284], the inhibition at 5 µM was 39.7%.
Molecule `O=C(OCc1ccccn1)c1nc2ccccc2[nH]1` [TCMDC-142313] has an inhibition at 5 µM of 43.6%.
With `Cc1[nH]cnc1CSCCNC(N)=NCCCCCCCCN=C(N)NCCSCc1nc[nH]c1C` [TCMDC-142301] the inhibition at 5 µM was -5.19%.
`CCOc1cc(NCCSCc2nc[nH]c2C)nc2ccccc12` [TCMDC-142294] was tested, and the inhibition at 5 µM was 26.1%.
`COc1cccc2c(N/N=C/c3ccc([N+](=O)[O-])cc3)ccnc12` [TCMDC-142109] gave an inhibition at 5 µM of 64%.
Molecule `CC(C)(C)c1cc([N+](=O)[O-])cc(C(=O)Nc2ccccc2C(F)(F)F)c1O` [TCMDC-142293] has an inhibition at 5 µM of -4.47%.
In the case of `COc1ccc2nccc(NN=Cc3ccccc3)c2c1` [TCMDC-142110], the inhibition at 5 µM is reported as 31.2%.
For `Oc1ccc(Cc2cc(Oc3c(I)cc(CCc4ncc[nH]4)cc3I)ccc2O)cc1` [TCMDC-142306], the inhibition at 5 µM was 59.2%.
Work on `Cc1cc(N/N=C/c2cccc([N+](=O)[O-])c2)c2ccc(F)cc2n1` [TCMDC-142169] yielded an inhibition at 5 µM of 109%.
Molecule `c1ccc2c3c(ccc2c1)Sc1c(ccc2ccccc12)N3` [TCMDC-142267] has an inhibition at 5 µM of -92.1%.
`FC(F)(F)c1ccc2nccc(NN=Cc3cccc(Cl)c3)c2c1` [TCMDC-142148] showed an inhibition at 5 µM of 56%.
In the case of `COc1cccc2c(NN=Cc3ccccc3Cl)cc(C)nc12` [TCMDC-142116], the inhibition at 5 µM is reported as 23.3%.
`O=c1c(NCCCN(Cc2ccc(F)cc2)c2ccccn2)c(NCc2ccncc2)c1=O` [TCMDC-142310] showed an inhibition at 5 µM of 91.6%.
`CN=C(Nc1c(Cl)cccc1Cl)N(C)C` [TCMDC-142121] was tested, and the inhibition at 5 µM was 5.95%.
For `CCOC(=O)c1cnc2c(OC)cc(OC)c(Cl)c2c1Nc1ccccc1` [TCMDC-142240], the inhibition at 5 µM was 44.8%.
In the case of `COc1ccc2nc(C)cc(NN=Cc3cc(OC)c(OC)cc3OC)c2c1` [TCMDC-142199], the inhibition at 5 µM is reported as -26%.
`COc1ccc2nccc(NN=Cc3ccc([N+](=O)[O-])cc3)c2c1` [TCMDC-142139] was tested, and the inhibition at 5 µM was -3.02%.
With `CC(C)c1cc(Oc2c(I)cc(CCN=C(N)N)cc2I)ccc1O` [TCMDC-142299] the inhibition at 5 µM was 38.1%.
Work on `CCN(CC)CC(O)c1cc(-c2ccc(C)cc2)nc2c(C)cc(C)cc12` (stereo not drawn) [TCMDC-142229] yielded an inhibition at 5 µM of -117%.
In the case of `CCOc1ccc2c(NN=Cc3cccc(OC)c3OC)cc(C)nc2c1` [TCMDC-142205], the inhibition at 5 µM is reported as 40.8%.
With `O=C(NC1c2ccccc2Oc2ccccc21)c1ccccc1O` [TCMDC-142251] the inhibition at 5 µM was 3.63%.
With `Cc1cc2nc(-c3cc(Br)ccc3O)c(-c3cc(Br)ccc3O)nc2cc1C` [TCMDC-142220] the inhibition at 5 µM was 24.2%.
With `COc1ccc2nc3cc(Cl)ccc3c(Nc3ccc(O)c(CNC(C)C)c3)c2c1` [TCMDC-142278] the inhibition at 5 µM was 57.9%.
With `Fc1ccccc1C=NNc1ccnc2ccc(C(F)(F)F)cc12` [TCMDC-142104] the inhibition at 5 µM was -68.2%.
`Cc1ccccc1C1=CCN(CCCN2c3ccccc3Sc3ccc(Cl)cc32)CC1` [TCMDC-142249] gave an inhibition at 5 µM of 53.4%.
For `Fc1ccc(C2N=C(SCCSC3=NC(c4ccc(F)cc4)C(c4ccc(F)cc4)N3)NC2c2ccc(F)cc2)cc1` (stereo not drawn) [TCMDC-142269], the inhibition at 5 µM was -7.65%.
With `Cc1cc(NN=CC=Cc2ccccc2)c2cc(F)ccc2n1` [TCMDC-142177] the inhibition at 5 µM was -42.3%.
`FC(F)(F)c1ccc2nccc(NN=Cc3ccccc3Cl)c2c1` [TCMDC-142147] showed an inhibition at 5 µM of -24.8%.
In the case of `Cc1ccc(Cc2cnc(NCCSCc3ccc(CN(C)C)s3)[nH]c2=O)cn1` [TCMDC-142304], the inhibition at 5 µM is reported as -3.6%.
In the case of `N#Cc1ccc(S(=O)(=O)N2C(c3cccc([N+](=O)[O-])c3)C(C(=O)c3ccccc3)N(C3CCCCC3)C2c2cccc([N+](=O)[O-])c2)cc1` (stereo not drawn) [TCMDC-142230], the inhibition at 5 µM is reported as 43.9%.
In the case of `COc1cccc(C=NNc2cc(C)nc3c(OC)cccc23)c1` [TCMDC-142197], the inhibition at 5 µM is reported as 92.7%.
`CC(C)NCC(O)COc1ccc(Cc2ccc(OCC(O)CNC(C)C)cc2)cc1` (stereo not drawn) [TCMDC-142221] gave an inhibition at 5 µM of 77%.
For `CCN(CC)CCCC(C)Nc1c(-c2ccc(C)cc2)cnc2ccccc12` (stereo not drawn) [TCMDC-142264], the inhibition at 5 µM was 25.6%.
`COc1ccc2nccc(NN=Cc3cccc([N+](=O)[O-])c3)c2c1` [TCMDC-142137] gave an inhibition at 5 µM of 53.9%.
`N=C(N)c1ccc(/C=C/c2ccc(C(=N)N)cc2O)cc1` [TCMDC-142178] showed an inhibition at 5 µM of 1.54%.
`COc1ccc2ccccc2c1C=NNc1cc(C)nc2cc(C(F)(F)F)ccc12` [TCMDC-142238] was tested, and the inhibition at 5 µM was -35%.
`O=c1c(NCCCN(Cc2ccc(F)cc2)c2ccccn2)c(NCc2cccnc2)c1=O` [TCMDC-142311] was tested, and the inhibition at 5 µM was 48%.
`COc1ccc2c(NN=Cc3c(OC)ccc4ccccc34)cc(C)nc2c1` [TCMDC-142236] gave an inhibition at 5 µM of 103%.
Molecule `COc1ccc(OC)c2c1CC1NCC2c2c(OC)ccc(OC)c21` (stereo not drawn) [TCMDC-142224] has an inhibition at 5 µM of 2.64%.
Molecule `CC1(C)N=C(N)N=C(N)N1c1ccc2ccccc2c1` [TCMDC-142179] has an inhibition at 5 µM of -17.5%.
Work on `Nc1c2c(nc3ccc(Oc4ccc(Br)cc4Br)cc13)CCCC2` [TCMDC-142286] yielded an inhibition at 5 µM of 91.6%.
Molecule `COc1ccc2ccccc2c1C=NNc1ccnc2ccc(F)cc12` [TCMDC-142237] has an inhibition at 5 µM of -11.1%.
`Cc1ccc(O)cc1C[C@@H]1C(=O)CC[C@@]2(C)[C@H]1CC[C@]2(C)O` [TCMDC-142266] showed an inhibition at 5 µM of -40.3%.
Molecule `CCCCNC(c1ccc(Cl)cc1)C(O)c1ccc(Cl)cc1` (stereo not drawn) [TCMDC-142227] has an inhibition at 5 µM of -29.7%.

Same assay, conditions: Plasmodium falciparum, 48 h; read-out: % Inhibition
Molecule `CCCCCc1cc(O)c2c(c1)OC(C)(C)c1ccncc1-2` [TCMDC-142255] has an inhibition at 5 µM of -24.7%.
`CCCCCCCc1cc(O)c2c(c1)OC(C)(C)c1ccncc1-2` [TCMDC-142259] gave an inhibition at 5 µM of 6.2%.
